Test results: patent US6964772B1, “Chitosan-xanthan based polyionic hydrogels for stabilization and controlled release of vitamins” (Kemestrie Inc., priority 1998, dated 2005)

Experiment: Determination of the Vitamin C stability in the cream base at 45° C.
Format: physicochemical
Settings: cream with 5-25 wt % Vitamin C, after 30 days at 45° C., protected from light
Method: The method consists of introducing 20 to 30 mg of freeze-dried CHITOXAN™ loaded with Vitamin C in a 50 ml centrifuge tube together with 40 ml of the extraction solvent. The mixture is magnetically stirred for 60 minutes. The suspension formed is centrifuged (4000 rpm) and the supernatant is analysed. All operations are done in absence of light.
This determination requires the establishment of a calibration curve at a maximum absorption wavelength using a UV-vis spectrophotometer. A standard is prepared with the same solution (and solvent) initially used to introduce the Vitamin C within the CHITOXAN™. Experimentation has shown an absorption maximum at 243 nm for Vitamin C at 98% purity obtained from ALDRICH.
The calibration curve is constructed at 243 nm as follows. A solution of 1.3 mg/ml of Vitamin C in the solvent is prepared in a graduated cylinder. The solution is prepared just before analysis. By successive dilutions, the absorption versus concentration calibration curve (mg/ml) is thus measured.
The concentration of Vitamin C in the supernatant obtained via extraction is determined at 243 nm using the calibration curve. […]
10 g of the preparation obtained by inclusion of CHITOXAN™—Vit. […] Samples not immediately analysed were kept frozen at −4° C.
The aliquots were analysed with the method described earlier (always using the extraction solvent). […]

O=C1O[C@H]([C@@H](O)CO)C(O)=C1O [free Vitamin C, Vitamin C]
coloration of the cream: an orange coloration appeared | degradation of Vitamin C: 98%
